Source: ChEMBL document CHEMBL3885881, “DrugMatrix”

Species on record: Rattus norvegicus
Test: DrugMatrix - Regimen: Daily Repeat
Assay type: toxicity, organism-based, Sprague-Dawley
Set-up: regimen Daily Repeat, gender Male, age 6-8 weeks
Conditions: in vivo, po, route oral GAVAGE, vehicle 100 % SALINE; for ABSOLUTE BASOPHIL / ABSOLUTE EOSINOPHIL / ABSOLUTE LYMPHOCYTE / ABSOLUTE MONOCYTE / ABSOLUTE SEGMENTED NEUTROPHIL / BASOPHIL / EOSINOPHIL / ERYTHROCYTE COUNT / HEMATOCRIT / HEMOGLOBIN / LEUKOCYTE COUNT / LYMPHOCYTE / MEAN CORPUSCULAR HEMOGLOBIN / MEAN CORPUSCULAR HEMOGLOBIN CONCENTRATION / MEAN CORPUSCULAR VOLUME / MONOCYTE / NEUTROPHIL / NUCLEATED RED BLOOD CELLS / PLATELET COUNT: tissue Blood; for ALANINE AMINOTRANSFERASE / ALBUMIN / ALKALINE PHOSPHATASE / ASPARTATE AMINOTRANSFERASE / BLOOD UREA NITROGEN / CARBON DIOXIDE / CHLORIDE / CHOLESTEROL / CREATINE PHOSPHOKINASE / CREATININE / GLUCOSE / LACTATE DEHYDROGENASE / LIPASE / PHOSPHORUS / POTASSIUM / SODIUM / TOTAL BILIRUBIN / TOTAL PROTEIN / URIC ACID: tissue Plasma
[1] = 0 mg/kg, 72 h, dose level Control, time 3 day
[2] = 0 mg/kg, 120 h, dose level Control, time 5 day
[3] = 34 mg/kg, 72 h, dose level High, time 3 day
[4] = 34 mg/kg, 120 h, dose level High, time 5 day

CCN(CC)N=O [N-NITROSODIETHYLAMINE]
ABSOLUTE BASOPHIL [1]: 0 CELLS/uL
ABSOLUTE EOSINOPHIL [1]: 0 CELLS/uL
ABSOLUTE LYMPHOCYTE [1]: 8960.83 CELLS/uL
ABSOLUTE MONOCYTE [1]: 103.5 CELLS/uL
ABSOLUTE SEGMENTED NEUTROPHIL [1]: 635.67 CELLS/uL
BASOPHIL [1]: 0%
EOSINOPHIL [1]: 0%
ERYTHROCYTE COUNT [1]: 5.09 x10E6/uL
HEMATOCRIT [1]: 31.8%
HEMOGLOBIN [1]: 12.42 G/DL
LEUKOCYTE COUNT [1]: 9.7 x10E3/uL
LYMPHOCYTE [1]: 92.33%
MEAN CORPUSCULAR HEMOGLOBIN [1]: 24.4 pg
MEAN CORPUSCULAR HEMOGLOBIN CONCENTRATION [1]: 39.07 G/DL
MEAN CORPUSCULAR VOLUME [1]: 62.47 fL
MONOCYTE [1]: 1%
NEUTROPHIL [1]: 6.67%
NUCLEATED RED BLOOD CELLS [1]: 0 /100WBC
PLATELET COUNT [1]: 466.5 x10E3/uL
ALANINE AMINOTRANSFERASE [1]: 83.33 u/L
ALBUMIN [1]: 4.33 G/DL
ALKALINE PHOSPHATASE [1]: 340.5 u/L
ASPARTATE AMINOTRANSFERASE [1]: 189.83 u/L
BLOOD UREA NITROGEN [1]: 15.83 mg/dL
CARBON DIOXIDE [1]: 38 mmol/L
CHLORIDE [1]: 96.83 MEQ/L
CHOLESTEROL [1]: 72.5 mg/dL
CREATINE PHOSPHOKINASE [1]: 370.67 u/L
CREATININE [1]: 0.28 mg/dL
GLUCOSE [1]: 182.83 mg/dL
LACTATE DEHYDROGENASE [1]: 513.5 u/L
LIPASE [1]: 9.83 u/L
PHOSPHORUS [1]: 11.32 mg/dL
POTASSIUM [1]: 6.32 MEQ/L
SODIUM [1]: 145.12 MEQ/L
TOTAL BILIRUBIN [1]: 0.2 mg/dL
TOTAL PROTEIN [1]: 6.4 G/DL
URIC ACID [1]: 2.03 mg/dL
ABSOLUTE BASOPHIL [2]: 0 CELLS/uL
ABSOLUTE EOSINOPHIL [2]: 43.83 CELLS/uL
ABSOLUTE LYMPHOCYTE [2]: 7316.67 CELLS/uL
ABSOLUTE MONOCYTE [2]: 87.33 CELLS/uL
ABSOLUTE SEGMENTED NEUTROPHIL [2]: 418.83 CELLS/uL
BASOPHIL [2]: 0%
EOSINOPHIL [2]: 0.33%
ERYTHROCYTE COUNT [2]: 4.77 x10E6/uL
HEMATOCRIT [2]: 29.93%
HEMOGLOBIN [2]: 11.48 G/DL
LEUKOCYTE COUNT [2]: 7.87 x10E3/uL
LYMPHOCYTE [2]: 93.5%
MEAN CORPUSCULAR HEMOGLOBIN [2]: 24.17 pg
MEAN CORPUSCULAR HEMOGLOBIN CONCENTRATION [2]: 38.57 G/DL
MEAN CORPUSCULAR VOLUME [2]: 62.68 fL
MONOCYTE [2]: 1%
NEUTROPHIL [2]: 5.17%
NUCLEATED RED BLOOD CELLS [2]: 0 /100WBC
PLATELET COUNT [2]: 377.67 x10E3/uL
ALANINE AMINOTRANSFERASE [2]: 89 u/L
ALBUMIN [2]: 4.42 G/DL
ALKALINE PHOSPHATASE [2]: 275.17 u/L
ASPARTATE AMINOTRANSFERASE [2]: 204.17 u/L
BLOOD UREA NITROGEN [2]: 15.33 mg/dL
CARBON DIOXIDE [2]: 36.83 mmol/L
CHLORIDE [2]: 94.67 MEQ/L
CHOLESTEROL [2]: 92 mg/dL
CREATINE PHOSPHOKINASE [2]: 514.5 u/L
CREATININE [2]: 0.24 mg/dL
GLUCOSE [2]: 184.17 mg/dL
LACTATE DEHYDROGENASE [2]: 648.67 u/L
LIPASE [2]: 10 u/L
PHOSPHORUS [2]: 12.33 mg/dL
POTASSIUM [2]: 6.51 MEQ/L
SODIUM [2]: 144.63 MEQ/L
TOTAL BILIRUBIN [2]: 0.18 mg/dL
TOTAL PROTEIN [2]: 6.7 G/DL
URIC ACID [2]: 2.33 mg/dL
ABSOLUTE BASOPHIL [3]: 0 CELLS/uL
ABSOLUTE EOSINOPHIL [3]: 38.67 CELLS/uL
ABSOLUTE LYMPHOCYTE [3]: 8206.67 CELLS/uL
ABSOLUTE MONOCYTE [3]: 88.33 CELLS/uL
ABSOLUTE SEGMENTED NEUTROPHIL [3]: 499.67 CELLS/uL
BASOPHIL [3]: 0%
EOSINOPHIL [3]: 0.33%
ERYTHROCYTE COUNT [3]: 6.73 x10E6/uL
HEMATOCRIT [3]: 41.13%
HEMOGLOBIN [3]: 15.77 G/DL
LEUKOCYTE COUNT [3]: 8.83 x10E3/uL
LYMPHOCYTE [3]: 93.33%
MEAN CORPUSCULAR HEMOGLOBIN [3]: 23.47 pg
MEAN CORPUSCULAR HEMOGLOBIN CONCENTRATION [3]: 38.37 G/DL
MEAN CORPUSCULAR VOLUME [3]: 61.23 fL
MONOCYTE [3]: 1%
NEUTROPHIL [3]: 5.33%
NUCLEATED RED BLOOD CELLS [3]: 0 /100WBC
PLATELET COUNT [3]: 912.67 x10E3/uL
ALANINE AMINOTRANSFERASE [3]: 112.33 u/L
ALBUMIN [3]: 4.2 G/DL
ALKALINE PHOSPHATASE [3]: 292.67 u/L
ASPARTATE AMINOTRANSFERASE [3]: 218.67 u/L
BLOOD UREA NITROGEN [3]: 13 mg/dL
CARBON DIOXIDE [3]: 38.67 mmol/L
CHLORIDE [3]: 96.33 MEQ/L
CHOLESTEROL [3]: 79.33 mg/dL
CREATINE PHOSPHOKINASE [3]: 309.67 u/L
CREATININE [3]: 0.53 mg/dL
GLUCOSE [3]: 161.33 mg/dL
LACTATE DEHYDROGENASE [3]: 311 u/L
LIPASE [3]: 9.67 u/L
PHOSPHORUS [3]: 11.2 mg/dL
POTASSIUM [3]: 6.34 MEQ/L
SODIUM [3]: 146.93 MEQ/L
TOTAL BILIRUBIN [3]: 0.2 mg/dL
TOTAL PROTEIN [3]: 6.03 G/DL
URIC ACID [3]: 2.2 mg/dL
ABSOLUTE BASOPHIL [4]: 0 CELLS/uL
ABSOLUTE EOSINOPHIL [4]: 0 CELLS/uL
ABSOLUTE LYMPHOCYTE [4]: 7416.33 CELLS/uL
ABSOLUTE MONOCYTE [4]: 148.33 CELLS/uL
ABSOLUTE SEGMENTED NEUTROPHIL [4]: 435.33 CELLS/uL
BASOPHIL [4]: 0%
EOSINOPHIL [4]: 0%
ERYTHROCYTE COUNT [4]: 6.58 x10E6/uL
HEMATOCRIT [4]: 41.63%
HEMOGLOBIN [4]: 15.6 G/DL
LEUKOCYTE COUNT [4]: 8 x10E3/uL
LYMPHOCYTE [4]: 94%
MEAN CORPUSCULAR HEMOGLOBIN [4]: 23.7 pg
MEAN CORPUSCULAR HEMOGLOBIN CONCENTRATION [4]: 37.47 G/DL
MEAN CORPUSCULAR VOLUME [4]: 63.27 fL
MONOCYTE [4]: 1.67%
NEUTROPHIL [4]: 4.33%
NUCLEATED RED BLOOD CELLS [4]: 0 /100WBC
PLATELET COUNT [4]: 607 x10E3/uL
ALANINE AMINOTRANSFERASE [4]: 90.67 u/L
ALBUMIN [4]: 3.93 G/DL
ALKALINE PHOSPHATASE [4]: 310.33 u/L
ASPARTATE AMINOTRANSFERASE [4]: 148 u/L
BLOOD UREA NITROGEN [4]: 13 mg/dL
CARBON DIOXIDE [4]: 37 mmol/L
CHLORIDE [4]: 95.67 MEQ/L
CHOLESTEROL [4]: 85.67 mg/dL
CREATINE PHOSPHOKINASE [4]: 246 u/L
CREATININE [4]: 0.16 mg/dL
GLUCOSE [4]: 139.33 mg/dL
LACTATE DEHYDROGENASE [4]: 200 u/L
LIPASE [4]: 13 u/L
PHOSPHORUS [4]: 11.33 mg/dL
POTASSIUM [4]: 6.73 MEQ/L
SODIUM [4]: 144.83 MEQ/L
TOTAL BILIRUBIN [4]: 0.23 mg/dL
TOTAL PROTEIN [4]: 5.43 G/DL
URIC ACID [4]: 1.9 mg/dL
